Data from patent US20020133846A1, “Method for protecting plants” (priority 1996, published 2002).
Read-outs that look alike come from different tables or passages of the source.

Assays:
[1] = tested on: Colletotrichum lagenarium; experiment: Action against Colletotrichum lagenarium on Cucumis sativus L., soil application; format: in vivo
Pyricularia oryzae [2] = format: in vivo
Cercospora sp. = experiment: Action against Cercospora sp. (leaf spot) on chili, field; format: in vivo; details: Table 17, leaves after sixth spraying, comp. I alone 5 ppm
Puccinia recondita = experiment: Action against Puccinia recondita in wheat; details: Table 19, comp. I alone 100 mg a.i. per liter
Protocol: 7-day-old wheat plants were sprayed to drip point with a spray mixture prepared from a formulated active ingredient, or combination of active ingredients. After 4 days, the treated plants were infected with a conidia suspension of the fungus, and the treated plants were subsequently incubated for 2 days at a relative atmospheric humidity of 90-100% and 20 C. 10 days post-infection, the fungus infestation was assessed.

[3] = tested on: Peronospora parasitica NoCo2; experiment: whole plant or invertebrate; format: in vivo; details: Hyaloperonospora parasitica, in Arabidopsis thaliana
Alternaria solani = experiment: Action against Alternaria solani in tomatoes in the open; details: Table 24, comp. I alone 2.5 g a.i. per ha
Protocol: Tomato plants on a 7 m^2 plot were sprayed at 7-day intervals with a spray mixture prepared wettable powder of the active ingredient; in total 9 times. Infection was naturally. For ion, the leaf infested with the fungus was measured.

[4] = tested on: Peronospora parasitica isolate Emwa; experiment: Fungal resistance to Peronospora parasitica Emwa after BTH treatment, Ws and NIM1-overexpressing lines; format: in vivo; details: 10 μM BTH
[5] = Action on crop yield of chili, field; format: in vivo; details: Table 18, harvest after sixth spraying, comp. I alone 5 ppm
Erysiphe graminis [6] = experiment: Action against Erysiphe graminis on barley (residual-protective / systemic)
Protocol: Residual-protective action: Barley plants about 8 cm in height were sprayed to drip point with an aqueous spray mixture (max. 0.02 % active ingredient) and were dusted 3 to 4 days later with conidia of the fungus. The infected plants were stood in a greenhouse at 22°. Fungus infestation was generally evaluated 10 days after infection.
Systemic action: Barley plants about 8 cm in height were watered with an aqueous spray mixture (max. 0.002 % active ingredient, based on the volume of the soil). […] The plants were dusted with conidia of the fungus 3 to 4 days later. The infected plants were stood in a greenhouse at 22°. Fungus infestation was generally evaluated 10 days after infection.

Erysiphe graminis [7] = experiment: Action against Erysiphe graminis in wheat, field trials
Protocol: In field trials (10 m^2), winter wheat in the growth phase was sprayed with a spray mixture prepared with a wettable powder of the active ingredient. Infection was naturally. 10 days post-infection, the fungus infestation was assessed.

Mycosphaerella fijiensis = experiment: Action against Mycosphaerella fijiensis in bananas; details: Table 23, comp. I alone 50 g a.i. per ha
Protocol: 40 banana plants in a 300 m^2 plot were sprayed at 17-19 day intervals with a spray mixture prepared with the wettable powder of the active ingredient; in total 6 times. Infection was naturally. For evaluation, the leaf infested with the fungus was measured.

[8] = tested on: Peronospora parasitica NoCo2; experiment: Action against Peronospora parasitica NoCo2 in Arabidopsis thaliana (Col-0), rRNA fungal probe; format: in vivo; details: Table 29, Col-0, BTH alone 0.01 mM
PR-1 gene expression = experiment: Northern analysis of PR-1 gene expression after BTH treatment, Ws and NIM1-overexpressing lines; format: in vivo, Arabidopsis thaliana; details: for PR-1 gene expression: 10 μM BTH
Phytophthora infestans = format: in vivo
Pyricularia oryzae [9] = format: in vivo; remark: listed apart in the source
[10] = tested on: Peronospora parasitica Emwa; experiment: Action against Peronospora parasitica Emwa in Arabidopsis thaliana (Ws), rRNA fungal probe; format: in vivo; details: Hyaloperonospora parasitica, in Arabidopsis thaliana; for inhibition at 10 µM: BTH alone 0.01 mM
Colletotrichum sp. = experiment: Action against Colletotrichum sp. (anthracnose) on chili, field; format: in vivo; details: Table 16, chili fruits after fifth spraying, comp. I alone 5 ppm
Text: Effects on crop yield: In a plot of land about 10 m^2 (test location: Cikampek, Java, Indonesia), chili plants were sprayed a total of 7 times at intervals of about 7 days with 500-700 liters of spray mixture per hectare. Three days after the first spraying, the plants were infected artificially with the fungus.

Pyricularia oryzae [11] = format: in vivo; details: Table 13, comp. I alone 6 ppm
Cercospora nicotianae = experiment: Action against Cercospora nicotianae on tobacco plants; format: in vivo
Peronospora tabacina = experiment: Action against Peronospora tabacina on tobacco plants
Protocol: Tobacco plants (6 weeks old) were sprayed with a formulated solution of the test compound. Four days after treatment, the plants were inoculated with a sporangia suspension of the fungus, kept at high humidity for 4 to 5 days and then incubated further under a normal day/night sequence. Evaluation of the symptoms in the tests was based on the leaf surface infested with fungus. The infestation of the untreated plants corresponded to 0 % action.

[12] = tested on: Pseudomonas syringae DC3000; experiment: Infection with Pseudomonas syringae DC3000 in Arabidopsis, Example 17; details: wild-type plants pretreated with INA (0.25 mg/ml)
Protocol: Six-week-old wild-type (±INA treatment), and cim3 plants were inoculated with a suspension of P. syringae DC3000 and the progress of the disease was followed by monitoring the growth of the bacteria extracted from infected leaves over time. […] The plants were also visually inspected for disease symptoms.
For this example, cultures of Pseudomonas syringae pv. tomato strain DC3000 were grown on King's B media (agar plates or liquid) plus rifampicin (50 jig/ml) at 28° C. […] An overnight culture was diluted and resuspended in 10 mM MgCT2 to a density of 2-5×10^5 cells per ml and injected into Arabidopsis leaves. Injections were carried out by creating a small hole with a 28 gauge needle midway up the leaf and then injecting approximately 250 μl of the diluted bacterial solution with a 1 cc syringe. At various time points, 10 random samples consisting of 3 random leaf punches from a #1 cork borer were taken from 10 plants from each treatment. The 3 leaf punches were placed in an eppendorf tube with 300 μl of 10 MM MgCl2 and ground with a pestle. The resulting bacterial suspension was appropriately diluted and plated on King's B media plus rifampicin (50 μg/ml) and grown for 4 days at 28° C. Bacterial colonies were counted and the data were subjected to Student's t statistical analysis (Sokal and Rohlf (1981), Biometry, 2nd ed. New York: W.H. Freeman and Company). […]

[13] = tested on: Peronospora parasitica (NoCo2); experiment: Resistance to Peronospora parasitica (NoCo2) in Arabidopsis, Example 17; format: in vivo; details: wild type Col-0 plants treated with INA 0.25 mg/ml, seven days after inoculation

For `CSC(=O)c1cccc2nnsc12` [BTH], the “% action O (observed)” value ([1]; Table 8, comp. I alone 0.02 ppm) was 6%, the “% action O (observed)” value ([1]; Table 8, comp. I alone 0.2 ppm) was 36% and the “% action O (observed)” value ([1]; Table 8, test 1, comp. I alone 0.06 ppm) was 0%. The “% action O (observed)” value ([1]; Table 8, test 3, comp. I alone 0.06 ppm) was 23%, the “% action O (observed)” value (Pyricularia oryzae [2]; Table 14, comp. I alone 0.25 kg a.i. per ha) was 22% and the “% action O (observed)” value (Pyricularia oryzae [2]; Table 14, comp. I alone 0.5 kg a.i. per ha) was 50%. For the same molecule, the “% action O (observed)” value (Cercospora sp.) was 76%, the “% action O (observed)” value (Puccinia recondita) was 51% and the inhibition at 30 µM ([3]; read-out: Fungal Growth Inhibition % O (observed), Table 34, wt Col-0, BTH 0.03 mM) was 20.8%. For the same molecule, the inhibition at 100 µM ([3]; read-out: Fungal Growth Inhibition % O (observed), Table 34, wt Col-0, BTH 0.1 mM) was 85.7%, the “% action O (observed)” value (Alternaria solani) was 32% and the “resistance to P. parasitica” value ([4]; NIM1-overexpressing lines) was “complete or almost complete resistance”. The “susceptibility to P. parasitica (Emwa)” value ([4]; wild-type Ws plants) was “still susceptible”, the “Crop yield in kg per hectare O (observed)” value [5] was 459 kg per hectare and the “% action O (observed)” value (Erysiphe graminis [6]; Table 3, comp. I alone 0.6 ppm) was 14%. For the same molecule, the “% action O (observed)” value (Erysiphe graminis [6]; Table 3, comp. I alone 2 ppm) was 33%, the “% action O (observed)” value (Erysiphe graminis [7]; Table 21, comp. I alone 5 g a.i. per ha) was 29% and the “% action O (observed)” value (Erysiphe graminis [7]; Table 22, comp. I alone 5 g a.i. per ha) was 29%. For the same molecule, the “% action O (observed)” value (Mycosphaerella fijiensis) was 19%, the inhibition at 10 µM ([8]; Hyaloperonospora parasitica, in Arabidopsis thaliana, read-out: Fungal Growth Inhibition % O (observed)) was 0% and the “Fungal Growth Inhibition % O (observed)” value [8] was “no fungal growth inhibition”. For the same molecule, the “PR-1 gene expression in leaf tissue” value (PR-1 gene expression; NIM1-overexpressing lines relative to wild-type, 100 μM BTH) was “much stronger and quicker”, the PR-1 gene expression (PR-1 gene expression; NIM1-overexpressing lines) was “much stronger response” and the PR-1 gene expression (PR-1 gene expression; wild-type Ws line) was “barely detectable”. The “% action O (observed)” value (Phytophthora infestans; Table 25, comp. I alone 5 mg a.i. per liter) was 14%, the “% action O (observed)” value (Phytophthora infestans; Table 25, comp. I alone 25 mg a.i. per liter) was 36% and the “% action O (observed)” value (Phytophthora infestans; Table 25, comp. I alone 100 mg a.i. per liter) was 61%. The “% action O (observed)” value (Phytophthora infestans; Table 25, comp. I alone 500 mg a.i. per liter) was 72%, the “% action O (observed)” value (Pyricularia oryzae [9]; Table 15, comp. I alone 0.05 ppm) was 5% and the “% action O (observed)” value (Pyricularia oryzae [9]; Table 15, comp. I alone 0.1 ppm) was 18%. For the same molecule, the “% action O (observed)” value (Pyricularia oryzae [9]; Table 15, comp. I alone 0.25 ppm) was 39%, the “% action O (observed)” value (Pyricularia oryzae [9]; Table 15, comp. I alone 0.5 ppm) was 65% and the inhibition at 3 µM ([10]; Table 30, Ws, BTH alone 0.003 mM, read-out: Fungal Growth Inhibition % O (observed)) was 0%. For the same molecule, the inhibition at 10 µM ([10]; Table 30, Ws, read-out: Fungal Growth Inhibition % O (observed)) was 20%, the inhibition at 10 µM ([10]; Table 31, Ws, read-out: Fungal Growth Inhibition % O (observed)) was 30% and the inhibition at 10 µM ([10]; Table 32, Ws, read-out: Fungal Growth Inhibition % O (observed)) was 30%. For the same molecule, the inhibition at 10 µM ([10]; text summary of Tables 30-32, Ws plants, read-out: fungal growth inhibition) was 20 to 30%, the “% action O (observed)” value (Colletotrichum sp.) was 55% and the “% action O (observed)” value (Pyricularia oryzae [11]) was 15%. For the same molecule, the “% action O (observed)” value (Cercospora nicotianae; Table 9, comp. I alone 0.2 ppm) was 0%, the “% action O (observed)” value (Cercospora nicotianae; Table 9, comp. I alone 2 ppm) was 17% and the “% action O (observed)” value (Cercospora nicotianae; Table 9, comp. I alone 6 ppm) was 55%. The “% action O (observed)” value (Cercospora nicotianae; Table 9, comp. I alone 20 ppm) was 78%, the “% action O (observed)” value (Cercospora nicotianae; Table 10, comp. I alone 0.2 ppm) was 0% and the “% action O (observed)” value (Cercospora nicotianae; Table 10, comp. I alone 2 ppm) was 17%. For the same molecule, the “% action O (observed)” value (Cercospora nicotianae; Table 10, comp. I alone 6 ppm) was 55%, the “% action O (observed)” value (Cercospora nicotianae; Table 10, comp. I alone 20 ppm) was 78% and the “% action O (observed)” value (Peronospora tabacina; Table 28, comp. I alone 0.03 ppm) was 14%. The “% action O (observed)” value (Peronospora tabacina; Table 28, comp. I alone 0.1 ppm) was 34% and the “% action O (observed)” value (Peronospora tabacina; Table 28, comp. I alone 0.3 ppm) was 88%.
For `O=C(O)c1cc(Cl)nc(Cl)c1` [INA, 2,6-dichloroisonicotinic acid], the “disease symptoms (visual inspection)” value [12] was “nearly devoid of disease symptoms” and the “fungal growth (trypan blue, sporulation)” value [13] was “no fungal growth”.
